Laboratory results as given in patent publication US20250299826A1, “OPTIMAL TUMOR MICROENVIRONMENT NORMALIZATION THERAPY” (University of Connecticut, priority 2022, published 2025).

Tested on: orthotopic 4T1 breast cancer
Experiment: Tumor transport model simulation: IFP/IFV, solute concentration and transvascular convective/diffusive flux profiles
Details: DEX treatment

C[C@@H]1C[C@H]2[C@@H]3CCC4=CC(=O)C=C[C@]4(C)[C@@]3(F)[C@@H](O)C[C@]2(C)[C@@]1(O)C(=O)CO [DEX, dexamethasone]
increase in volume fraction of tumor dominated by convective transport vs control: 61%
